{
  "source": "PubChem BioAssay (NCI)",
  "test_in_all_cases": "growth of human tumour cells (NCI), 48 h",
  "key": {"[1]": {"system": "M14 melanoma"}, "[2]": {"system": "CCRF-CEM leukemia"}, "[3]": {"system": "A498 renal"}, "[4]": {"system": "DLD-1 colon"}, "[5]": {"system": "DMS 114 small cell lung"}, "[6]": {"system": "M19-MEL melanoma"}, "[7]": {"system": "EKVX NSCLC"}, "[8]": {"system": "NCI-H460 lung"}, "[9]": {"system": "SF-268 CNS"}, "[10]": {"system": "RXF 393 renal"}, "[11]": {"system": "SW-620 colon"}, "[12]": {"system": "MCF7 breast"}, "[13]": {"system": "U251 CNS"}, "[14]": {"system": "HS 578T breast"}, "[15]": {"system": "COLO 205 colon"}, "[16]": {"system": "MDA-MB-435"}, "[17]": {"system": "HCT-15 colon"}},
  "note": "Several values for one entry are separate records, joined by “and”; a condition that tells them apart may be missing. Equal values may be shown once.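 Step 1: Grow cells in 96-well plates. Step 2: Expose to compound for 48 hours at 5 concentrations. Step 3: Interpolate endpoints linearly; if unreached, use highest concentration. GI50 = concentration required for 50% inhibition of growth. The concentration for full growth arrest is given as TGI.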",
  "data": [
    {"smiles": "CCOC(=O)C(CC(C)C)NC(=O)C(Cc1ccc(N(CCCl)CCCl)cc1)NC(C)=O", "note": "(configuration not stated)", "values": [
      {"measurement": "GI50", "setting": "[1]", "value": 4.13, "unit": "µM"},
      {"measurement": "TGI", "setting": "[1]", "value": "15.8 µM and 8.08 µM"},
      {"measurement": "GI50", "setting": "[2]", "value": 2.52, "unit": "µM"},
      {"measurement": "GI50", "setting": "[3]", "value": 18.4, "unit": "µM"},
      {"measurement": "TGI", "setting": "[3]", "value": "37 µM and 48.4 µM"},
      {"measurement": "GI50", "setting": "[4]", "value": "5.4 µM and 8.64 µM"},
      {"measurement": "TGI", "setting": "[4]", "value": "21.1 µM and 31.3 µM"},
      {"measurement": "GI50", "setting": "[5]", "value": 1.37, "unit": "µM"},
      {"measurement": "TGI", "setting": "[5]", "value": "12.2 µM and 7.05 µM"},
      {"measurement": "GI50", "setting": "[6]", "value": 6.3, "unit": "µM"},
      {"measurement": "TGI", "setting": "[6]", "value": "19.3 µM and 15.9 µM"},
      {"measurement": "GI50", "setting": "[7]", "value": 19.7, "unit": "µM"},
      {"measurement": "TGI", "setting": "[7]", "value": "35.7 µM and 27.7 µM"},
      {"measurement": "TGI", "setting": "[8]", "value": "14.1 µM and 17.6 µM"},
      {"measurement": "TGI", "setting": "[9]", "value": "22.6 µM and 20.5 µM"},
      {"measurement": "GI50", "setting": "[10]", "value": 2.57, "unit": "µM"},
      {"measurement": "TGI", "setting": "[10]", "value": "6.75 µM and 4.46 µM"},
      {"measurement": "GI50", "setting": "[11]", "value": 11.3, "unit": "µM"},
      {"measurement": "TGI", "setting": "[11]", "value": "28.7 µM and 33.4 µM"},
      {"measurement": "TGI", "setting": "[12]", "value": 25.9, "unit": "µM"},
      {"measurement": "GI50", "setting": "[13]", "value": 10.2, "unit": "µM"},
      {"measurement": "TGI", "setting": "[13]", "value": "26.2 µM and 27 µM"},
      {"measurement": "TGI", "setting": "[14]", "value": 20.2, "unit": "µM"},
      {"measurement": "GI50", "setting": "[15]", "value": 7.01, "unit": "µM"},
      {"measurement": "TGI", "setting": "[15]", "value": "19.8 µM and 13 µM"},
      {"measurement": "TGI", "setting": "[16]", "value": 11.5, "unit": "µM"},
      {"measurement": "TGI", "setting": "[17]", "value": 43.1, "unit": "µM"}
    ]}
  ]
}
